Among the data in patent US10435361B2, “Kinase inhibitors” (Topivert Pharma Limited, priority 2013, dated 2019) are IC50 values, retold here.

The subject of test [1] is PBMCs. The test can be described thus: IL-2 and IFN gamma release in CD3/CD28 stimulated PBMC cells. Particulars: Homo sapiens, assay (c). It counts as cell-based. Here is the method: PBMCs from healthy subjects are separated from whole blood using a density gradient (Lymphoprep, Axis-Shield Healthcare). Cells are added to a 96 well plate pre-coated with a mixture of CD3/CD28 monoclonal antibodies (0.3 μg/mL eBioscience and 3 μg/mL BD Pharmingen respectively). Compound at the desired concentration is then added to the wells and the plate left for 3 days under normal tissue culture conditions. […] The IC50 is determined from the dose response curve.

Test [2] relates to PBMCs. Nature of the test: LPS-induced TNFα/IL-8 release in PBMC cells. The conditions noted are these: Homo sapiens, assay (b), read-out: IC50 Values for Inhibition of Cytokine Release PBMCs IL-8. The class given is cell-based. Here is the method: Peripheral blood mononuclear cells (PBMCs) from healthy subjects are separated from whole blood using a density gradient (Lymphoprep, Axis-Shield Healthcare). The PBMCs are seeded in 96 well plates and treated with compounds at the desired concentration for 2 hours before addition of 1 ng/mL LPS (Escherichia Coli 0111:B4 from Sigma Aldrich) for 24 hours under normal tissue culture conditions (37° C., 5% CO2). The supernatant is harvested for determination of IL-8 and TNFα concentrations by sandwich ELISA (Duo-set, R&D systems) and read on the fluorescence microplate reader (Varioskan® Flash, ThermoFisher Scientific).

[3] abbreviates: read-out: IC50 Values for Inhibition of Cytokine Release PBMCs IL-2.
Where [4] appears, read: read-out: IC50 Values for Inhibition of Cytokine Release PBMCs IFNγ.

Structures are written as SMILES.

As for `COCCOCCOCCOc1cc(Nc2nccc(Oc3ccc(NC(=O)Nc4cc(C(C)(C)C)cc(NS(=O)(=O)N5CCOCC5)c4OC)c4ccccc34)n2)cc(OC)c1` [83(b), N-(5-(tert-butyl)-2-methoxy-3-(3-(4-((2-((3-methoxy-5-(2-(2-(2-methoxyethoxy)ethoxy)-ethoxy)phenyl)amino)pyrimidin-4-yl)oxy)naphthalen-1-yl)ureido)phenyl)morpholine-4-sulfonamide], the figures for the IC50 in test [1] (setting [3]) and in test [2] were 109 nM and 3.7 nM, respectively.
`CNC(=O)c1cc(N2CCOCC2)cc(NC(=O)Nc2ccc(Oc3ccnc(Nc4cc(OC)cc(OCCOCCOCCOC)c4)n3)c3ccccc23)c1OC` [Example 32, 2-Methoxy-3-(3-(4-((2-((3-methoxy-5-(2-(2-(2-methoxyethoxy)ethoxy)ethoxy)phenyl)-amino)pyrimidin-4-yl)oxy)naphthalen-1-yl)ureido)-N-methyl-5-morpholinobenzamide]: the IC50 in test [2] was found to be 7.7 nM.
For `COCCOCCOCCOc1cc(Nc2nccc(Oc3ccc(NC(=O)Nc4cc(C(C)(C)C)cc(C(=O)NC5CC5)c4OC)c4ccccc34)n2)cc(OC)c1` [Example 33, 5-(tert-Butyl)-N-cyclopropyl-2-methoxy-3-(3-(4-((2-((3-methoxy-5-(2-(2-(2-methoxy-ethoxy)ethoxy)ethoxy)phenyl)amino)pyrimidin-4-yl)oxy)naphthalen-1-yl)ureido)-benzamide], in test [2], the IC50 was 4.2 nM.
Still for that read-out and setting: next, `COCCOCCOCCOc1cc(Nc2nccc(Oc3ccc(NC(=O)Nc4cc(C(C)(C)C)cc(C(=O)NCc5ccccc5)c4OC)c4ccccc34)n2)cc(OC)c1` [Example 38, N-Benzyl-5-(tert-butyl)-2-methoxy-3-(3-(4-((2-((3-methoxy-5-(2-(2-(2-methoxyethoxy)-ethoxy)ethoxy)phenyl)amino)pyrimidin-4-yl)oxy)naphthalen-1-yl)ureido)benzamide]: 6.3 nM.
The same measure, in the same setting: next, `COCCOCCOCCOCCOCCOCCOCCNC(=O)c1cc(Nc2nccc(Oc3ccc(NC(=O)Nc4cc(C(C)(C)C)cc(NS(C)(=O)=O)c4OC)c4ccccc34)n2)cc(OC)c1` [Example 40, 3-((4-((4-(3-(5-(tert-Butyl)-2-methoxy-3-(methylsulfonamido)phenyl)ureido)naphthalen-1-yl)oxy)pyrimidin-2-yl)amino)-N-(2,5,8,11,14,17,20-heptaoxadocosan-22-yl)-5-methoxy-benzamide]: 3.1 nM; `CCNC(=O)c1cc(C(C)(C)C)cc(NC(=O)Nc2ccc(Oc3ccnc(Nc4cc(OC)cc(OCCOCCOCCOC)c4)n3)c3ccccc23)c1OC` [Example 41]: 4.5 nM.
On the same count and under the same terms, the same measure for `COCCOCCOCCOc1cc(Nc2nccc(Oc3ccc(NC(=O)Nc4cc(C(C)(C)C)cc(C(=O)NC(C)C)c4OC)c4ccccc34)n2)cc(OC)c1` [Example 42, 5-(tert-Butyl)-N-isopropyl-2-methoxy-3-(3-(4-((2-((3-methoxy-5-(2-(2-(2-methoxyethoxy)-ethoxy)ethoxy)phenyl)amino)pyrimidin-4-yl)ox)naphthalen-1-yl)ureido)benzamide]: 6.6 nM; for `COCCNC(=O)c1cc(C(C)(C)C)cc(NC(=O)Nc2ccc(Oc3ccnc(Nc4cc(OC)cc(OCCOCCOCCOC)c4)n3)c3ccccc23)c1OC` [Example 43, 5-(tert-Butyl)-2-methoxy-3-(3-(4-((2-((3-methoxy-5-(2-(2-(2-methoxyethoxy)ethoxy)-ethoxy)phenyl)amino)pyrimidin-4-yl)oxy)naphthalen-1-yl)ureido)-N-(2-methoxyethyl)-benzamide]: 2 nM; for `COCCOCCOCCOc1cc(Nc2nccc(Oc3ccc(NC(=O)Nc4cc(C(C)(C)C)cc(C(=O)NCC(=O)O)c4OC)c4ccccc34)n2)cc(OC)c1` [Example 44, 2-(5-(tert-Butyl)-2-methoxy-3-(3-(4-((2-((3-methoxy-5-(2-(2-(2-methoxyethoxy)ethoxy)-ethoxy)phenyl)amino)pyrimidin-4-yl)oxy)naphthalen-1-yl)ureido)benzamido)acetic acid]: 86.8 nM.
`COc1cc(Nc2nccc(Oc3ccc(NC(=O)Nc4cc(C(C)(C)C)cc(NS(C)(=O)=O)c4OC)c4ccccc34)n2)cc(C(=O)C2CC2)c1` [Example 50, N-(5-(tert-Butyl)-3-(3-(4-((2-((3-(cyclopropanecarbonyl)-5-methoxyphenyl)amino)-pyrimidin-4-yl)oxy)naphthalen-1-yl)ureido)-2-methoxyphenyl)methanesulfonamide]: the IC50 in test [2] is 12.1 nM.
`C#Cc1cc(Nc2nccc(Oc3ccc(NC(=O)Nc4cc(C(C)(C)C)cc(C(=O)NC)c4OC)c4ccccc34)n2)cc(C(=O)N[C@@H](C)CN2CCOCC2)c1` [Example 60, (S)-5-(tert-Butyl)-3-(3-(4-((2-((3-ethynyl-5-((1-morpholinopropan-2-yl)carbamoyl)phenyl)amino)pyrimidin-4-yl)oxy)naphthalen-1-yl)ureido)-2-methoxy-N-methylbenzamide]: in test [2], the IC50 stood at 2 nM.
As for `C#Cc1cc(Nc2nccc(Oc3ccc(NC(=O)Nc4cc(C(C)(C)C)cc(C(=O)NC)c4OC)c4ccccc34)n2)cc(C(=O)N[C@H](C)CN2CCOCC2)c1` [Example 61, (R)-5-(tert-Butyl)-3-(3-(4-((2-((3-ethynyl-5-((1-morpholinopropan-2-yl)carbamoyl)phenyl)amino)pyrimidin-4-yl)oxy)naphthalen-1-yl)ureido)-2-methoxy-N-methylbenzamide], the IC50 in test [2] is 2.1 nM.
With `C#Cc1cc(Nc2cc(Oc3ccc(NC(=O)Nc4cc(C(N)=O)cc(C(C)(C)C)c4)c4ccccc34)ccn2)cc(C(=O)NCCOCCOCCOC)c1` [Example 62, 3-((4-((4-(3-(3-(tert-Butyl)-5-carbamoylphenyl)ureido)naphthalen-1-yl)oxy)pyridin-2-yl)amino)-5-ethynyl-N-(2-(2-(2-methoxyethoxy)ethoxy)ethyl)benzamide], the values for the IC50 in test [1] (setting [4]), in test [1] (setting [3]) and in test [2] were 32.2 nM, 48.7 nM and 4.6 nM, respectively.
Regarding `COCCOCCOCCOc1cc(Nc2nccc(Oc3ccc(NC(=O)Nc4cc(C(C)(C)C)cc5[nH]c(=O)oc45)c4ccccc34)n2)cc(OC)c1` [Example 63, 1-(5-(tert-Butyl)-2-oxo-2,3-dihydrobenzo[d]oxazol-7-yl)-3-(4-((2-((3-methoxy-5-(2-(2-(2-methoxyethoxy)ethoxy)ethoxy)phenyl)amino)pyrimidin-4-yl)oxy)naphthalen-1-yl)urea], the IC50 in test [2] was determined as 17.3 nM.
On the same count and under the same terms, next, `COCCOCCOCCOc1cc(Nc2nccc(Oc3ccc(NC(=O)Nc4cc(C(C)(C)C)cc5nc(C)oc45)c4ccccc34)n2)cc(OC)c1` [Example 64, 1-(5-(tert-Butyl)-2-methylbenzo[d]oxazol-7-yl)-3-(4-((2-((3-methoxy-5-(2-(2-(2-methoxy-ethoxy)ethoxy)ethoxy)phenyl)amino)pyrimidin-4-yl)oxy)naphthalen-1-yl)urea]: 10.5 nM.
As for `C#Cc1cc(Nc2cc(Oc3ccc(NC(=O)Nc4cc(C(C)(C)C)cc(NS(C)(=O)=O)c4OC)c4ccccc34)ccn2)cc(C(=O)N[C@H](C)COCCOCCOC)c1` [Example 68, (R)-3-((4-((4-(3-(5-(tert-Butyl)-2-methoxy-3-(methylsulfonamido)phenyl)ureido)-naphthalen-1-yl)oxy)pyridin-2-yl)amino)-5-ethynyl-N-(1-(2-(2-methoxyethoxy)ethoxy)-propan-2-yl)benzamide], the IC50 was found to be 68.8 nM in test [1] (setting [4]), 220 nM in test [1] (setting [3]) and 2.8 nM in test [2].
`CCOc1c(NC(=O)Nc2ccc(Oc3ccnc(Nc4cc(OC)cc(OCCOCCOCCOC)c4)n3)c3ccccc23)cc(C(C)(C)C)cc1NS(C)(=O)=O` [Example 69, N-(5-(tert-butyl)-2-ethoxy-3-(3-(4-((2-((3-methoxy-5-(2-(2-(2-methoxyethoxy)ethoxy)-ethoxy)phenyl)amino)pyrimidin-4-yl)oxy)naphthalen-1-yl)ureido)phenyl)methane-sulfonamide]: the figures for the half-maximal inhibitory concentration (IC50) in test [1] (setting [4]) and in test [2] were 2.2 nM and 1.6 nM, respectively.
For `COCCOCCOCCOc1cc(Nc2cc(Oc3ccc(NC(=O)Nc4cc(C(C)(C)C)cc(C(=O)NC5COC5)c4OC)c4ccccc34)ccn2)cc(OC)c1` [Example 77, 5-(tert-Butyl)-2-methoxy-3-(3-(4-((2-((3-methoxy-5-(2-(2-(2-methoxyethoxy)ethoxy)ethoxy)-phenyl)amino)pyridin-4-yl)oxy)naphthalen-1-yl)ureido)-N-(oxetan-3-yl)benzamide], in test [2], the IC50 turned out to be 2 nM.
On to `COc1c(NC(=O)Nc2ccc(Oc3ccnc(Nc4ccccc4)n3)c3ccccc23)cc(C(C)(C)C)cc1C(=O)NC1COC1` [Example 78, 5-(tert-Butyl)-2-methoxy-N-(oxetan-3-yl)-3-(3-(4-((2-(phenylamino)pyrimidin-4-yl)oxy)-naphthalen-1-yl)ureido)benzamide], for which the IC50 in test [2] came to 14 nM.
As for `COc1c(NC(=O)Nc2ccc(Oc3ccnc(Nc4ccccc4)c3)c(F)c2F)cc(C(C)(C)C)cc1C(=O)NC1COC1` [Example 82, 5-(tert-Butyl)-3-(3-(2,3-difluoro-4-((2-(phenylamino)pyridin-4-yl)oxy)phenyl)ureido)-2-methoxy-N-(oxetan-3-yl)benzamide], the IC50 in test [2] was 6.6 nM.

The IC50 is the concentration that gives 50% inhibition.
